Reference: ChEMBL document CHEMBL1153748 (J Med Chem, 2010)

Columns and labels:
[1] = target: T1, Peroxisome proliferator-activated receptor delta (Homo sapiens, UniProt Q03181)
T1 sequence (Q03181 whole entry): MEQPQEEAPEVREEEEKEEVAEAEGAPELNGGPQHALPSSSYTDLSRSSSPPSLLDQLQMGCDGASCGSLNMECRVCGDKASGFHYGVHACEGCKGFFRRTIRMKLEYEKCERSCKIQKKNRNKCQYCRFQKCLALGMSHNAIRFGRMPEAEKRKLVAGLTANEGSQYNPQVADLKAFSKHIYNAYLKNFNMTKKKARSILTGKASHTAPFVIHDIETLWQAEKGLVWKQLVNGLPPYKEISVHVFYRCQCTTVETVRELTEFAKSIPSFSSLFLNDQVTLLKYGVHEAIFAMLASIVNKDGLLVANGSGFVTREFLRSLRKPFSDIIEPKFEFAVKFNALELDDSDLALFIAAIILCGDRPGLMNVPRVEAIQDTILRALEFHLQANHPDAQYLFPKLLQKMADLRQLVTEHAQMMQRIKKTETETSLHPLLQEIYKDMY

[2] = target: T2, Peroxisome proliferator-activated receptor alpha (Homo sapiens, UniProt Q07869); assay: Agonist activity at human PPARalpha ligand binding domain expressed in human 293T cells co-transfected with Gal4-DBD by luciferase transactivation assay; type: cell-based; conditions: read-out: EC50
T2 sequence (Q07869 whole entry): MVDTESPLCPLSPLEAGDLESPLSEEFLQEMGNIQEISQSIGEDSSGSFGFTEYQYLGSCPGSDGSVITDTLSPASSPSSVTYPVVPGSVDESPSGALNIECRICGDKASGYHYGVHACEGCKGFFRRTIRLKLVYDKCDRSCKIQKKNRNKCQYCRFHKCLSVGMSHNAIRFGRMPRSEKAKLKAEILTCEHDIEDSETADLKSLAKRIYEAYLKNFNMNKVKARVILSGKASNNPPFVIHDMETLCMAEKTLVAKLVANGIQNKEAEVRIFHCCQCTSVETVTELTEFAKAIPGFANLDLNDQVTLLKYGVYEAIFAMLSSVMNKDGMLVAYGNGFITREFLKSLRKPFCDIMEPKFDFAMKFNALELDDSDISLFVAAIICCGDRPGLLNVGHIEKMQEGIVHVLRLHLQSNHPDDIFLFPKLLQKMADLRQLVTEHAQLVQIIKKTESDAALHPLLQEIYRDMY

[3] = target: T3, Peroxisome proliferator-activated receptor gamma (Homo sapiens, UniProt P37231); type: cell-based, 293T; conditions: read-out: EC50
T3 sequence (P37231 whole entry): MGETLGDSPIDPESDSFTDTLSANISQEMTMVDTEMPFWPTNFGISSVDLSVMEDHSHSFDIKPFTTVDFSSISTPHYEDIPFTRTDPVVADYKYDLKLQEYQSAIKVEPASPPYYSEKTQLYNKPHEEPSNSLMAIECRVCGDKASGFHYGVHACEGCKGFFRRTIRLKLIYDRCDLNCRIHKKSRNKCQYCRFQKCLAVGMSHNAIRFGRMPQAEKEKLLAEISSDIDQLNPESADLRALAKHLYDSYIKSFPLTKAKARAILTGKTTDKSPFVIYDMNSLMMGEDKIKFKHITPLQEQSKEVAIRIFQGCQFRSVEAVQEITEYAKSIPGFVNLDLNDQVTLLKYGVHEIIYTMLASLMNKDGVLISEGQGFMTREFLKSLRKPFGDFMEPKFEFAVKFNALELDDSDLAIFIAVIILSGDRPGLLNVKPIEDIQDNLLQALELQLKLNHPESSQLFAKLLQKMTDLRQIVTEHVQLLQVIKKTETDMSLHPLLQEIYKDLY

| Compound | EC50 [1] [µM] | EC50 [2] [µM] | EC50 [3] [µM] |
| --- | --- | --- | --- |
| COc1ccc(-c2nc(COc3ccc(OCC(=O)O)c(C)c3)oc2-c2cccc(C(F)(F)F)c2)cc1 | 0.65 | > 10 | > 10 |
| COc1ccc(-c2nc(COc3ccc(OCC(=O)O)c(C)c3)oc2-c2cnc3ccccc3c2)cc1 | 0.11 | > 10 | > 10 |
| COc1ccc(-c2nc(COc3ccc(OCC(=O)O)c(C)c3)oc2-c2ccc(OC(F)(F)F)cc2)cc1 | 0.01 | > 10 | > 10 |
| COc1ccc(-c2nc(COc3ccc(OCC(=O)O)c(C)c3)oc2-c2ccc(Cl)cc2)cc1 | 0.05 | > 10 | > 10 |
| COc1ccc(-c2nc(COc3ccc(CC(=O)O)cc3Cl)sc2-c2ccc(OC)cc2)cc1 | – | – | > 10 |
| Cc1cc(OCc2nc(-c3ccc(C(F)(F)F)cc3)cs2)ccc1OCC(=O)O | 1.39 | > 10 | > 10 |
| COc1ccc(-c2nc(COc3ccc(OCC(=O)O)c4ccccc34)sc2-c2ccc(C(F)(F)F)cc2)cc1 | 2.93 | > 10 | > 10 |
| Cc1cc(OCc2nc(-c3cccnc3)c(-c3ccc(OC(F)(F)F)cc3)o2)ccc1OCC(=O)O | 0.007 | > 10 | > 10 |
| COc1ccc(-c2nc(CSc3ccc(OCC(=O)O)c(C)c3)oc2-c2ccc(OC)cc2)cc1 | 0.66 | > 10 | > 10 |
| O=C(O)Cc1cccc(-c2noc(-c3ccccc3)c2C(=O)NCCOc2cc(Cl)cc(Cl)c2)c1 | 0.07 | > 10 | > 10 |
| COc1ccc(-c2nc(SCCOc3ccc(CC(=O)O)cc3Cl)sc2-c2ccc(OC)cc2)cc1 | – | – | 5.87 |
| Cc1cc(OCc2nc(-c3ccc(-c4ccccc4)cc3)c(-c3ccc(-c4ccccc4)cc3)s2)ccc1OCC(=O)O | 0.13 | > 10 | > 10 |
| COc1ncc(-c2nc(COc3ccc(OCC(=O)O)c(C)c3)oc2-c2ccc(OC(F)(F)F)cc2)cn1 | 0.014 | > 10 | > 10 |
| COc1ccc(-c2nc(COc3ccc(CC(=O)O)cc3Cl)sc2-c2ccc(C(F)(F)F)cc2)cc1 | 0.48 | > 10 | > 10 |
| Cc1ccc(-c2sc(COc3ccc(OCC(=O)O)c(C)c3)nc2C)cc1 | 6.32 | > 10 | > 10 |
| COc1ccc(-c2nc(Sc3ccc(OCC(=O)O)c(C)c3)sc2-c2ccc(OC)cc2)cc1 | 1.41 | > 10 | > 10 |
| COc1ccc(-c2nc(COc3ccc4c(c3)CC(C(=O)O)O4)sc2-c2ccc(C(F)(F)F)cc2)cc1 (stereo not given) | 0.46 | > 10 | > 10 |

| Compound | EC50 [1] [µM] | EC50 [2] [µM] | EC50 [3] [µM] |
| --- | --- | --- | --- |
| Cc1cc(OCc2nc(-c3ccc(N4CCCC4)cc3)c(-c3ccc(OC(F)(F)F)cc3)s2)ccc1OCC(=O)O | 0.41 | > 10 | > 10 |
| Cc1cc(OCc2nc(-c3ccc(N4CCOCC4)cc3)c(-c3ccc(OC(F)(F)F)cc3)s2)ccc1OCC(=O)O | 0.045 | > 10 | > 10 |
| COc1ccc(-c2nc(COc3ccc(OCC(=O)O)c(C)c3)oc2-c2ccc(OC)cc2)cc1 | 0.12 | > 10 | > 10 |
| COc1ccc(-c2nc(COc3ccc4c(CC(=O)O)cccc4c3)sc2-c2ccc(C(F)(F)F)cc2)cc1 | 0.74 | > 10 | > 10 |
| Cc1cc(OCc2nc(C)c(-c3ccc(Cl)cc3)s2)ccc1OCC(=O)O | 0.32 | > 10 | > 10 |
| COc1ccc(-c2nc(CSc3ccc(CC(=O)O)cc3Cl)sc2-c2ccc(C(F)(F)F)cc2)cc1 | 0.062 | > 10 | > 10 |
| COc1ccc(-c2nc(COc3ccc4oc(C(=O)O)cc4c3)sc2-c2ccc(C(F)(F)F)cc2)cc1 | > 10 | > 10 | > 10 |
| Cc1cc(OCc2nc(-c3ccc4c(c3)OCO4)c(-c3ccc(OC(F)(F)F)cc3)s2)ccc1OCC(=O)O | 0.031 | > 10 | > 10 |
| COc1ccc(-c2nc(SCc3ccc(CC(=O)O)cc3Cl)sc2-c2ccc(OC)cc2)cc1 | – | – | > 10 |
| COc1ccc(-c2nc(COc3ccc(OCC(=O)O)c(C)c3)sc2/C=C/c2ccccc2)cc1 | 0.11 | > 10 | > 10 |
| COc1ccc(-c2nc(COc3ccc(OCC(=O)O)c(C)c3)sc2-c2cc3ccccc3o2)cc1 | 0.05 | > 10 | > 10 |
| CCCc1c(OCCCSc2ccc(CC(=O)O)cc2Cl)ccc2c(CC)noc12 [L-165461] | – | 1.3 | – |
| COc1ccc(-c2nc(SCCCOc3ccc(CC(=O)O)cc3Cl)sc2-c2ccc(OC)cc2)cc1 | – | – | 4.61 |
| COc1ccc(-c2nc(Sc3ccc(CC(=O)O)cc3Cl)sc2-c2ccc(OC)cc2)cc1 | – | – | > 10 |
| Cc1cc(OCc2cc(-c3ccc(C(F)(F)F)cc3)cc(-c3ccc(C(F)(F)F)cc3)c2)ccc1OCC(=O)O | – | > 10 | > 10 |
| COc1ccc(-c2nc(SCCCCOc3ccc(CC(=O)O)cc3Cl)sc2-c2ccc(OC)cc2)cc1 | – | – | 2.56 |

Now from value to compound:

| EC50 [1] [µM] | EC50 [2] [µM] | EC50 [3] [µM] | Compound |
| --- | --- | --- | --- |
| 0.1 | > 10 | > 10 | COc1ccc(-c2nc(COc3ccc(OCC(=O)O)c(C)c3)sc2-c2ccc(OC)cc2)cc1 |
| > 10 | > 10 | > 10 | Cc1cc(OCc2nc(-c3ccccc3)c(-c3ccccc3)s2)ccc1OCC(=O)O |
| > 10 | > 10 | > 10 | COc1ccc(-c2sc(COc3ccc(OCC(=O)O)c(C)c3)nc2C)cc1 |
| 0.06 | > 10 | > 10 | COc1ccc(-c2nc(COc3ccc(OCC(=O)O)c(C)c3)sc2-c2ccc(Cl)cc2)cc1 |
| 0.02 | > 10 | > 10 | COc1ccc(-c2nc(COc3ccc(OCC(=O)O)c(C)c3)sc2-c2ccc(OC(F)(F)F)cc2)cc1 |
| 0.15 | > 10 | > 10 | COc1ccc(-c2nc(COc3ccc(OCC(=O)O)c(C)c3)sc2-c2ccc(SC(F)(F)F)cc2)cc1 |
| 0.04 | > 10 | > 10 | COc1ccc(-c2nc(COc3ccc(OCC(=O)O)c(C)c3)sc2-c2ccc(C(F)(F)F)cc2)cc1 |
| 0.02 | > 10 | > 10 | CCCc1cc(OCc2nc(-c3ccc(OC)cc3)c(-c3ccc(C(F)(F)F)cc3)s2)ccc1OCC(=O)O |
| 0.034 | > 10 | > 10 | COc1ncc(-c2nc(COc3ccc(OCC(=O)O)c(C)c3)sc2-c2ccc(OC(F)(F)F)cc2)cn1 |
| 0.13 | > 10 | > 10 | Cc1cc(OCc2nc(-c3ccccc3)c(-c3ccc(Cl)cc3)s2)ccc1OCC(=O)O |
| 0.331 | > 10 | > 10 | Cc1cc(OCc2nc(-c3ccc(C(F)(F)F)cc3)c(-c3ccc(OC(F)(F)F)cc3)s2)ccc1OCC(=O)O |
| 0.19 | > 10 | > 10 | COc1ccc(-c2nc(COc3ccc(OCC(=O)O)c(C)c3)sc2-c2ccccc2)cc1 |
| 0.056 | > 10 | > 10 | COc1ccc(-c2nc(COc3ccc(OCC(=O)O)c(C)c3)sc2-c2ccc(OC(F)(F)F)cc2)cc1F |
| 2.62 | > 10 | > 10 | COc1ccc(-c2sc(COc3ccc(OCC(=O)O)c(C)c3)nc2-c2ccccc2)cc1 |
| 0.07 | > 10 | > 10 | COc1ccc(-c2nc(COc3ccc(OCC(=O)O)c(C)c3)sc2-c2cccc(C(F)(F)F)c2)cc1 |
| > 10 | > 10 | > 10 | COc1ccc(-c2nc(COc3ccc(OCC(=O)O)c(C)c3)sc2-c2cccc3ccccc23)cc1 |
| 0.51 | > 10 | > 10 | Cc1cc(OCc2nc(-c3ccc(Cl)cc3)c(-c3ccc(Cl)cc3)s2)ccc1OCC(=O)O |
